Here are results for one compound from patent publication US20230190787A1, “SYSTEM AND METHOD FOR TREATING CARDIAC TOXICITY VIA GUT MICROBIOTA” (priority 2022, published 2023).

Format in all cases: in vivo, Wistar albino rats
The subject of data set [1] is Dox induced cardiac toxicity/remodeling. As to the kind of experiment: Blood analysis: serum biochemical levels (auto analyzer/ELISA kits) in doxorubicin induced cardiac toxicity/remodelling rats. The source says: Zinc Quantification, rat high sensitivity C-Reactive Protein, Fibrinogen invitro, IL-6, IL-10, Renin, Ang II, and CKMB Enzyme linked Immunosorbent Assay (ELISA) rat kits are procured from Abcam, Cambridge, United Kingdom.
Sufficient experimental animals Wistar albino rats approximately average weight of 170±20 g are obtained. The protocol is approved by Institutional Animal Ethical Committee, all animals are acclimatized for 7 days standard laboratory condition of 12-hr light/dark cycle, maintained at temperature of 22±2° C. with relative humidity of 50±5% in department of Biochemistry, Faculty of Science.
(§1) All the animals are randomly divided into 4 groups with six animals in each: 1) Normal control (NC), fed with standard semi purified diet along with normal drinking water, 2) Zam control (ZC) fed with standard semi purified diet along with Zam water p.o at libitum, 3) Doxorubicin or Dox control (DC), animals are injected with Dox (1 mg/kg bw) i.p. on first day of protocol fed with standard semi purified diet along with normal drinking water and 4) Dox+Zam (DZ) group injected with Dox (1 mg/kg bw) i.p. on first day of protocol, and treated with Zam water p.o at libitum, for 28 days. All the animals are on semi purified diet throughout the study period. Body weight of rats are recorded weekly and consumption of food and water is measured daily basis.
Physiological and behavioural changes are monitored in experimental rats for entire period of protocol. The protocol is terminated on 29th day, animals are sedated with diethyl ether for further process of organ harvesting and blood collection. Abdominal artery, punctured and blood is collected in centrifugal tubes approximately 3 ml/100 g body weight, allowed to clot at laboratory temperature for 30 minutes, centrifuged at 4° C. for 15 minutes at 4500 rpm. The supernatant serum, transferred to 1.5 ml tubes and kept at −80° C. for further analysis. Harvested heart and kidneys are weight, preserved in 10% phosphate buffered formaldehyde for histopathological analysis.
The serum biochemical levels of Zinc, Fibrinogen, Renin, IL-10,11-6, CRP, Ang II, and CKMB are analyzed by standard auto analyzer kits-Zinc quantification kit, Rat Fibrinogen ELISA kit, Rat Renin ELISA kit, IL-10 ELISA kit, I1-6 ELISA kit, CRP ELISA kit, Ang II ELISA kit, and CKMB ELISA kit from Abcam Cambridge, United Kingdom.
Background: An ELISA detects its analyte on a solid surface through an enzyme-linked reagent.

Data set [2] relates to Gut microbiota. As to the kind of experiment: Gut microbiota analysis: 16S metagenomic analysis of stool DNA. Particulars: DC group: Dox 1 mg/kg i.p., normal drinking water. On the procedure: All the animals are randomly divided into 4 groups with six animals in each: 1) Normal control (NC), fed with standard semi purified diet along with normal drinking water, 2) Zam control (ZC) fed with standard semi purified diet along with Zam water p.o at libitum, 3) Doxorubicin or Dox control (DC), animals are injected with Dox (1 mg/kg bw) i.p. on first day of protocol fed with standard semi purified diet along with normal drinking water and 4) Dox+Zam (DZ) group injected with Dox (1 mg/kg bw) i.p. on first day of protocol, and treated with Zam water p.o at libitum, for 28 days. All the animals are on semi purified diet throughout the study period. Body weight of rats are recorded weekly and consumption of food and water is measured daily basis. Stool samples of rats are used to isolate the DNA by […] kit as per manufacturer's instructions. Briefly 250-300 mg of stool samples collected from lower intestine, in 2 ml tube weighted and thawed on ice. ASL buffer (1.5 ml) is added, vortexed for 3 minutes followed by incubation at 80° C. for 15 minutes. The incubated tubes are tapped every four minute and centrifuge at 14000 rpm for 15 minutes at room temperature. EX tablet is added to 1.5-2.0 ml of supernatant, followed by centrifugation for 5 minutes at 15000 rpm. The procedure continued with the addition of proteinase K (15 μl) and AL buffer, incubated for 10 minutes at 70° C. Approximately 300 μl of absolute alcohol or ethanol is added, centrifuged for 1 minute at 12000 rpm with addition of 500 μl of AW1 buffer to column above and centrifuge at 14000 rpm for 1 minute. The filtrate in collection tube is discarded, finally DNA is eluted and is evaluated on 1% agarose gel. The isolated sample of DNA is forwarded for 16S metagenomic analysis.

The subject of data set [3] is heart. As to the kind of experiment: Histopathological analysis of heart (H&E). The settings on record: DC group: Dox 1 mg/kg i.p., normal drinking water. Here is the method:
as §1
(§2) Physiological and behavioural changes are monitored in experimental rats for entire period of protocol. The protocol is terminated on 29th day, animals are sedated with diethyl ether for further process of organ harvesting and blood collection. Abdominal artery, punctured and blood is collected in centrifugal tubes approximately 3 ml/100 g body weight, allowed to clot at laboratory temperature for 30 minutes, centrifuged at 4° C. for 15 minutes at 4500 rpm. The supernatant serum, transferred to 1.5 ml tubes and kept at −80° C. for further analysis. […]

Data set [4] deals with kidneys. As to the kind of experiment: Histopathological analysis of kidney (H&E). The settings on record: DC group: Dox 1 mg/kg i.p., normal drinking water. On the procedure: as §1, §2
Where [5] appears, read: DC group: Dox 1 mg/kg i.p., normal drinking water.

Regarding `COc1cccc2c1C(=O)c1c(O)c3c(c(O)c1C2=O)C[C@@](O)(C(=O)CO)C[C@@H]3O[C@H]1C[C@H](N)[C@H](O)[C@H](C)O1` [Doxorubicin], the “Plasma CRP level” value in data set [1] (DC group: Dox 1 mg/kg bw i.p. day 1, normal drinking water) is 13.40 ± 2.66 mg/dL. Besides, in data set [1] (DC group: Dox 1 mg/kg bw i.p. day 1, normal drinking water, day 29), the “serum Zinc level” value is 0.55 ± 0.12 µg/mL. Besides, in data set [1] (setting [5]), the “Ang II level” value amounted to 16.00 ± 2.26 nmol/mL/min, the CKMB level was found to be 121.8±3.12 U/L, the Fibrinogen concentration is recorded as 4.37±0.74 and the IL-6 is reported as 3.36±1.32. Moreover, the plasma renin level in data set [1] (setting [5]) was 1.02 ± 0.38 ng/mL/h. This compound showed an IL-10 in data set [1] (DC group: Dox single dose 1 mg/kg body weight) of 3.73 ± 0.50 pg/mL. In addition, in data set [2], the Firmicutes population was 33%, the “abundance of Bacteroidetes” value stood at 34%, the “abundance of Muribaculaceae” value is given as 26% and the “abundance of Proteobacteria” value is reported as 17%. In data set [2], the “abundance of Romboutsia” value amounted to 2%. For the same compound, the “histopathological evaluation of cardiac tissue” value in data set [3] is “focal areas of myocardial cell degeneration with increased intracellular spaces, high fat deposits, inflammatory cell infiltration and disrupted tissue orientation”. In addition, the histopathology of kidneys entry in data set [4] was “severe pathological lesions with tubular degeneration, tubular cast and tubular necrosis with eosinophilic infiltration”.
